In ChEMBL document CHEMBL5360564, “Small molecule LpxC inhibitors against gram-negative bacteria: Advances and future perspectives” (Eur J Med Chem, 2023) one finds MIC, IC50 and Ki data, which are given here for 17 compounds.

Assay [1] deals with Pseudomonas aeruginosa. The assay can be described thus: Antibacterial activity against Pseudomonas aeruginosa clinical isolate assessed as bacterial growth inhibition by microdilution assay. It is filed as functional.
For assay [2], the system named is Escherichia coli. The assay can be described thus: Antibacterial activity against Escherichia coli CMCC 44568 assessed as bacterial growth inhibition measured after 22 hrs. It is filed as functional.
In assay [3] the test system is Escherichia coli. The assay can be described thus: Antibacterial activity against Escherichia coli CMCC 25922 assessed as bacterial growth inhibition measured after 22 hrs. It is filed as functional.
Assay [4] concerns Pseudomonas aeruginosa. The assay can be described thus: Antibacterial activity against Pseudomonas aeruginosa CMCC 10104 assessed as bacterial growth inhibition measured after 22 hrs. In kind it is functional.
Assay [5] relates to Pseudomonas aeruginosa. The assay can be described thus: Antibacterial activity against Pseudomonas aeruginosa CMCC 27853 assessed as bacterial growth inhibition measured after 22 hrs. It is filed as functional.
Assay [6] has as its target T1, UDP-3-O-acyl-N-acetylglucosamine deacetylase (Escherichia coli K-12, UniProt P0A725).
T1 sequence (P0A725 whole entry): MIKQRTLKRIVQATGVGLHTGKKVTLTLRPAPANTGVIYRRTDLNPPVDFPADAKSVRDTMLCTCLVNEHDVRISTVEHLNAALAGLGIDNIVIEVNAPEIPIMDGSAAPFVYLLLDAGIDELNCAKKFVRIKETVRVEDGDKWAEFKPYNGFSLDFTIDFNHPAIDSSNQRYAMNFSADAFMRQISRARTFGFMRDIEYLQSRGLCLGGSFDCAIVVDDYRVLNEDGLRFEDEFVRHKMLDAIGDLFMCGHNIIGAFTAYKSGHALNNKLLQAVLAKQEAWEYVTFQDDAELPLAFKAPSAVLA
The assay is described as follows: Inhibition of Escherichia coli LpxC.

Assay [7] concerns Pseudomonas aeruginosa. The assay is described as follows: Antibacterial activity against Pseudomonas aeruginosa HER 1018 assessed as bacterial growth inhibition by twofold dilution method. It is filed as functional.
The target of assay [8] is T2, UDP-3-O-acyl-N-acetylglucosamine deacetylase (Pseudomonas aeruginosa, UniProt B5ATN6).
T2 sequence (B5ATN6 whole entry): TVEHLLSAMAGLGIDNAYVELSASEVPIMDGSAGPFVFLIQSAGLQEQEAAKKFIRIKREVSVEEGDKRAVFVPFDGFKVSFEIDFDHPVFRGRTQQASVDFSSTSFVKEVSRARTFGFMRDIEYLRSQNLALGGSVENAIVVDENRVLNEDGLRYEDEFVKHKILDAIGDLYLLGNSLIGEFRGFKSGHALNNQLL
The assay can be described thus: Inhibition of recombinant Pseudomonas aeruginosa LpxC expressed in Escherichia coli.

The test system of assay [9] is Pseudomonas aeruginosa. The assay is described as follows: Antibacterial activity against Pseudomonas aeruginosa PA14 assessed as bacterial growth inhibition measured after 18 hrs by broth microdilution assay. It is filed as functional. (Dilution methods test growth across graded concentrations, often in twofold steps.)
Assay [10] deals with Escherichia coli. The assay can be described thus: Antibacterial activity against Escherichia coli DH5alpha assessed as bacterial growth inhibition measured after 18 hrs by broth microdilution assay. In kind it is functional.
The subject of assay [11] is Pseudomonas aeruginosa. The assay is described as follows: Antibacterial activity against Pseudomonas aeruginosa PAO1 assessed as bacterial growth inhibition measured after 18 hrs by broth microdilution assay. It is filed as functional.
The test system of assay [12] is Escherichia coli. The assay can be described thus: Antibacterial activity against Escherichia coli MB4926 assessed as bacterial growth inhibition. It is filed as functional.
Assay [13] deals with Escherichia coli. The assay can be described thus: Antibacterial activity against Escherichia coli MB5500 assessed as bacterial growth inhibition. In kind it is functional.
Assay [14] relates to Escherichia coli. The assay can be described thus: Antibacterial activity against wild type Escherichia coli W3110 assessed as bacterial growth inhibition measured after 22 hrs by MTT assay. In kind it is functional. For orientation: Formazan colour is commonly taken as a measure of viable cells.
Assay [15] has as its target T3, UDP-3-O-acyl-N-acetylglucosamine deacetylase (Aquifex aeolicus (strain VF5), UniProt O67648).
T3 sequence (O67648 whole entry): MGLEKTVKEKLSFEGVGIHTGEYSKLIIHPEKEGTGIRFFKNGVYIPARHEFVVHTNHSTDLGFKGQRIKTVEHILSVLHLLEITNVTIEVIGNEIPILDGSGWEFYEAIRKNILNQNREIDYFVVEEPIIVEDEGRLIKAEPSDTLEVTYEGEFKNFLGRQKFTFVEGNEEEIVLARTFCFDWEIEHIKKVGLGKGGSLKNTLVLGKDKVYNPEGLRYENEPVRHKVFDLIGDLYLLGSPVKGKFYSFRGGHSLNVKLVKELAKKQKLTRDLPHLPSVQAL
The assay can be described thus: Inhibition of Aquifex aeolicus LpxC transformed in Escherichia coli BL21(DE3) pLysS cells.

The test system of assay [16] is Escherichia coli. The assay can be described thus: Antibacterial activity against Escherichia coli D21 assessed as bacterial growth inhibition measured after 20 hrs by checkerboard method. In kind it is functional.
Assay [17] concerns the target T1, UDP-3-O-acyl-N-acetylglucosamine deacetylase. The assay can be described thus: Inhibition of Escherichia coli LpxC assessed as inhibition constant measured after 30 mins by fluorescence based microplate assay.
For assay [18], the system named is Escherichia coli. The assay is described as follows: Antibacterial activity against Escherichia coli assessed as bacterial growth inhibition two-fold microdilution. In kind it is functional.
The next assay relates to Klebsiella pneumoniae. The assay is described as follows: Antibacterial activity against Klebsiella pneumoniae assessed as bacterial growth inhibition two-fold microdilution. In kind it is functional.

Values after ≈ are worked out from the molar mass of the structure shown.

As usually defined, the MIC is the lowest concentration found to suppress growth. What is called IC50 is the midpoint of a concentration-inhibition curve. For orientation: Ki means the dissociation constant of the complex between target and ligand, obtained from inhibition or displacement.

Consider `COC1([C@H](NC(=O)c2ccc(C#CC#CCCO)cc2)C(=O)NO)CS(=O)(=O)C1`, for which, in the assay on Pseudomonas aeruginosa [1], the MIC was determined as 2.3 µg/mL.
For the compound `N=C(N)N/N=C/c1ccc(C#CC#Cc2ccccc2Cl)cc1`, the minimal inhibitory concentration (MIC) in the assay on Escherichia coli [2] is 64 µg/mL (≈ 200 µM); in the assay on Escherichia coli [3] it was 8 µg/mL (≈ 24.9 µM); in the assay with Pseudomonas aeruginosa [4], 4 µg/mL (≈ 12.5 µM); in the assay with Pseudomonas aeruginosa [5], above 128 µg/mL.
`O=c1ccn([C@@H]2O[C@H](CO/N=C/c3ccc(O)c(O)c3O)[C@@H](O)[C@H]2O)c(=O)[nH]1` came in with an IC50 in assay [6] of 27000 nM.
As to `CS(=O)(=O)[C@](F)(CCc1ccc(-c2ccccc2)cc1)C(=O)NO`, the MIC in the assay with Pseudomonas aeruginosa [7] was 12.5 µg/mL (≈ 35.6 µM).
As for `CC(C)(N)[C@H](NC(=O)c1ccc(C#CC#C[C@H](O)CO)cc1)C(=O)NO`, in assay [8], the IC50 stood at 19 nM. Further, the MIC in the assay with Pseudomonas aeruginosa [1] was 3.5 µg/mL.
As to `O=C(C[C@@H]1CN(c2ccc(C#Cc3ccccc3)cc2)CO1)NO`, the MIC with Pseudomonas aeruginosa [9] turned out to be 10 µg/mL (≈ 31 µM); with Escherichia coli [10], 1.25 µM (≈ 0.403 µg/mL); in the assay with Pseudomonas aeruginosa [11], 1.25 µg/mL (≈ 3.88 µM).
For the compound `CC(C)(N)[C@H](NC(=O)c1ccc(C#CC#C[C@@H](O)CO)cc1)C(=O)NO`, the IC50 in assay [8] was 12 nM. Also, in the assay on Pseudomonas aeruginosa [1], the MIC was 8.8 µg/mL.
With `CCCc1cc(C2=N[C@@H](C(=O)NO)CO2)cc(OC)c1OC`, the MIC in the assay on Escherichia coli [12] and with Escherichia coli [13] was 1 µg/mL (≈ 3.24 µM) in each case.
Turning to `C[C@@H](O)[C@H](NC(=O)c1ccc(C#CC#Cc2ccccc2)cc1)C(=O)NO`, the MIC with Escherichia coli [14] was 0.05 µg/mL (≈ 0.138 µM).
Regarding `CCCCCC(=O)O[C@@H]1[C@@H](CP(C)(=O)O)CO[C@H](CO)[C@H]1O`, in assay [15], 192 nM corresponded to half-maximal inhibition (IC50).
`CC(C)(N)[C@H](NC(=O)c1ccc(C#CC#CC2CC2)cc1)C(=O)NO`: the IC50 in assay [8] was found to be 0.62 nM. Besides, the MIC in the assay on Pseudomonas aeruginosa [1] worked out at 0.16 µg/mL.
On to `N=C(N)N/N=C/c1ccc(C#Cc2ccc(Cl)cc2)cc1`, for which the MIC with Escherichia coli [2] is 2 µg/mL (≈ 6.74 µM); in the assay on Escherichia coli [3], 2 µg/mL (≈ 6.74 µM); in the assay on Pseudomonas aeruginosa [4], 1 µg/mL (≈ 3.37 µM); with Pseudomonas aeruginosa [5] it was above 128 µg/mL.
As for `O=C(NO)[C@@H](Cc1ccc2ccccc2c1)NS(=O)(=O)c1ccc2ccccc2c1`, in the assay on Escherichia coli [16], the MIC was 2 µg/mL.
With `O=C(NO)C1(COc2ccc(C#Cc3ccc(CN4CCOCC4)cc3)cc2)CCOCC1`, the Ki in assay [17] was found to be 352 nM.
Take `O=C(CO/N=C/c1ccc(O)c(O)c1O)NC[C@H]1O[C@@H](n2ccc(=O)[nH]c2=O)[C@H](O)[C@@H]1O`: 120000 nM corresponded to half-maximal inhibition in assay [6] (IC50).
With `C[C@@H](O)[C@](C)(NC(=O)c1ccc(C#CC#Cc2ccc(N)cc2)cc1)C(=O)NO`, the MIC in the assay on Escherichia coli [14] was 0.24 µg/mL (≈ 0.613 µM).
As for `C[C@H](O)c1nccn1Cc1cc(-c2ccc(C#C[C@@H]3[C@H]4CN(CCCC(=O)O)C[C@@H]34)cc2)on1`, the MIC in the assay on Escherichia coli [18] and in the assay with Klebsiella pneumoniae was 2 µg/mL (≈ 4.34 µM) throughout. In assay [6], this compound had an IC50 of 101 nM.
